Measurements as given in patent US20250009841A1, “Methods of Diagnosing and Managing Bleeding Disorders” (Emory University, priority 2023, published 2025).

Tested on: healthy donor platelets
Test: Monoclonal antibody contraction experiments on the platelet contraction cytometer
Assay type: cell-based, human
Settings: 2.5 μg/mL monoclonal antibody
Protocol: Blood was drawn into acid-citrate-dextrose (ACD) solution 2 (VWR) and was subsequently centrifuged at 150 G for 15 min without brake and the resulting platelet rich plasma (PRP) was centrifuged again with an additional 10% ACD by volume at 900 G for 5 min without brake. The supernatant, platelet poor plasma, was discarded or utilized to isolate patient polyclonal IgG antibodies. The platelet pellet was resuspended into HEPES modified buffer and was gel filtered into this same buffer using a gel filtration column. Platelets were then diluted to 2 million/mL prior to contraction cytometry to reduce paracrine signaling and minimize platelet aggregate formation.
Each contraction cytometer contains large arrays of fibrinogen microdots pairs that are patterned onto a polyacrylamide hydrogel with a stiffness of about 75 k Pa. […] These values for microdot size and spacing ensured that platelets preferentially attached to the microdots and were able to spread to neighboring microdot in the microdot pair and contract. […]
Platelet contraction was imaged on a confocal microscope using a 20×/0.8 NA lens. […] Images were analyzed using a script which calculated the center-to-center distance between fibrinogen microdots. […] Traction forces (T) of individual platelets were calculated as: T=2πGa (xs−xf)/2−v. […]

Molecule: PAC-1
- effect on platelet contractile force (15 minutes prior to thrombin activation): lowers contractile forces

B1: abciximab (antibody, chains of the INN, looked up, V domains shown)
VH: EVQLQQSGTVLARPGASVKMSCEASGYTFTNYWMHWVKQRPGQGLEWIGAIYPGNSDTSYIQKFKGKAKLTAVTSTTSVYMELSSLTNEDSAVYYCTLYDGYYVFAYWGQGTLVTVSA
VL: EIVLTQSPVTLSVTPGDSVSLSCRASRDISNNLHWFQQTSHESPRLLIKYASQSMSGIPSRFSGSGSGTDFTLSINSVETEDFGMYFCQQTNSWPYTFGGGTKLEIK
- effect on platelet adhesion (fibrinogen microdots): blocks adhesion
